Test results reported in US20090305225A1, “Inhibition of Creatine Uptake to Promote Weight Loss” (priority 2005, published 2009).

Assays:
[1] = test system: 11G2L cDNA (creatine transporter mRNA); assay: Differential display of hypothalamic mRNA (band 11G2L); format: in vivo, rat; details: icv CoPP 0.4 umol/kg, 48 hours, absent in vehicle fed and fasted rats
Protocol: RNA Extraction from Rat Hypothalamus. Adult male Sprague-Dawley rats were randomly separated into three groups. Group 1 (control) was injected icv with saline and fed ad lib. Group 2 (fasted) was injected icv with saline and allowed ad lib access to water only; Group 3 (CoPP) was injected icv with CoPP 0.4 umol/kg body weight and fed ad lib. After 24 and 48 hours, weights were measured. Only those rats with robust weight loss of at least 10% of initial body weight 48 hours after treatment were chosen for the CoPP group. Eleven rats from each group were then killed by decapitation, using procedures outlined in the Animal Welfare Act and as approved by the University of Vermont, Office of Animal Care Management. The hypothalamic block of each rat was dissected from the rat's brain as described and immediately homogenized with RNase-free homogenizer. Total RNA was extracted using an Ultraspec-II RNA kit (Biotecx Laboratories, Inc., Houston, Tex.) following the manufacturer's procedures and stored at −80 degrees C. until analysis.
Differential Display-Reverse Transcription-Polymerase Chain Reaction (DD-RT-P). The RNAimage mRNA Differential Display system was purchased from GenHunter Corporation (Nashville, Tenn.). Three anchored H-T11M (where M refer to G, A, or C) primers and 12 sets of arbitrary primers (HAP 1 to 12) were chosen to use in this particular experiment. […]

Fos (c-fos protein) = assay: Fos immunohistochemistry of hypothalamic sections 4 hours after icv injection; format: in vivo, rat; details: 4 hours after icv injection, percent of area stained
Protocol: In experiments involving immunohistochemistry, animals were injected icv with beta-GPA or with vehicle. Four hours after injection, animals were anesthetized with halothane and perfused through the left ventricle of the heart, initially with oxygenated Krebs buffer and then with ˜350 ml of 4% paraformaldehyde in 0.1M NaCl, pH 7.4 phosphate buffered saline (PBS). Brains were extracted from the skull, hypothalamic blocks dissected (by coronal cuts anterior and posterior to hypothalamic landmarks) and post-fixed in 4% paraformaldehyde solution at 4 degrees C. overnight. The following day, the blocks were transferred to 30% sucrose and incubated overnight at 4 degrees C. After freezing in Optimum Cutting Temperature (OCT) compound (Sakura, Japan), blocks were sectioned coronally at 40 um on a cryostat and sections individually floated in multi-well dishes filled with PBS. Sections were treated for 30 minutes with 0.4% Triton detergent in potassium PBS to aid in antibody penetration. Primary antibodies were added, the plates shaken gently for 1 hour at room temperature, then incubated at 4 degrees C. for 72 hours. Sections were then brought to room temperature while shaking and the primary antibody solution was removed by washing 3 times with PBS buffer. After removal of the last wash, the secondary antibody solution was added and the plates incubated for 2 hours at room temperature in the dark. Removal of the second antibody was achieved by washing three times with PBS buffer prior to mounting on subbed slides. They were allowed to dry, rewetted with PBS buffer and cover-slipped with Citifluor (Ted Pella, Reading, Calif.).
Fos studies were performed using indirect fluorescence visualization. The method utilized rabbit c-Fos-AB5 (1:2,000; Oncogene Research Products, Cambridge, Mass.) with goat anti-rabbit Cy3 (1:500; Jackson Immuno Research Laboratories, West Grove, Pa.) as the secondary antibody. […] Staining observed in experimental tissue was compared to that observed from experiment-matched negative controls. […] Immunoreactive Fos (Fos IR) was quantified by capturing images at 10× using MagnaFire 2.0 Software. These images were imported into the Metamorph 6.1 Software package and density of staining measured using Hue Saturation Intensity. Regions outlining nuclei were hand drawn with an electric pen and the total areas and stained areas measured to yield percentages of total areas with specific Fos-IR. The values for left and right dorsomedial nuclei in each rat were averaged, and the averages used to calculate means. In the case of the III ventricle, the entire image was used for quantification prior to calculating the percentage of the area with Fos-IR.

With C=Cc1c(C)c2cc3[nH]c(cc4nc(cc5nc(cc1[nH]2)C(C)=C5CCC(=O)[O-])C(CCC(=O)[O-])=C4C)c(C)c3C=C.[Co+2] [CoPP, Cobaltic protoporphyrin IX] the “cDNA band 11G2L in differential display” value [1] was “present”, the “Fos IR in the dorsomedial nucleus” value (Fos (c-fos protein)) was 6.86 ± 5.85% and the “Fos IR in the paraventricular nucleus” value (Fos (c-fos protein)) was 4.44 ± 2.22%. For the same molecule, the “Fos IR in the midsection of the ventral III ventricle” value (Fos (c-fos protein); p<0.025) was 48.3 ± 11.18%.
